These results are taken from ChEMBL document CHEMBL5303573, “Mapping human microbiome drug metabolism by gut bacteria and their genes” (Nature, 2019).

Data set [1] in a line: The drug is tested on Bifidobacterium longum subsp. Infantis strain: CCUG52486 for biotransformation. The drug concentrations were measured before and after a 12-h incubation by liquid-chromatography-coupled mass spectrometry (LC–MS). To be noted: 2 µM.
Data set [2] in a line: The drug is tested on Bacteroides xylanisolvens strain: DSM18836 for biotransformation. The drug concentrations were measured before and after a 12-h incubation by liquid-chromatography-coupled mass spectrometry (LC–MS). To be noted: 2 µM.
Data set [3] can be described thus: The drug is tested on Clostridium scindens strain: ATCC35704 for biotransformation. The drug concentrations were measured before and after a 12-h incubation by liquid-chromatography-coupled mass spectrometry (LC–MS). The following applies: 2 µM.
For data set [4] the following is noted: bacteroides thetaiotaomicron, 12 h, 2 µM.
Description: The drug is tested on Bacteroides thetaiotaomicron strain: VPI-5482 for biotransformation. The drug concentrations were measured before and after a 12-h incubation by liquid-chromatography-coupled mass spectrometry (LC–MS)
A short description of data set [5]: The drug is tested on Bacteroides pectinophilus strain: ATCC43243 for biotransformation. The drug concentrations were measured before and after a 12-h incubation by liquid-chromatography-coupled mass spectrometry (LC–MS). To be noted: 2 µM.
For data set [6] the following is noted: bacteroides stercoris, 12 h, 2 µM.
Description: The drug is tested on Bacteroides stercoris strain: ATCC43183 for biotransformation. The drug concentrations were measured before and after a 12-h incubation by liquid-chromatography-coupled mass spectrometry (LC–MS)
Data set [7] is described as follows: The drug is tested on Bacteroides vulgatus strain: ATCC8482 for biotransformation. The drug concentrations were measured before and after a 12-h incubation by liquid-chromatography-coupled mass spectrometry (LC–MS). The following applies: phocaeicola vulgatus, 2 µM.
Data set [8] in a line: The drug is tested on Clostridium asparagiforme strain: DSM15981 for biotransformation. The drug concentrations were measured before and after a 12-h incubation by liquid-chromatography-coupled mass spectrometry (LC–MS). It counts as ADME. Further details: dose 2 uM, timepoint 0 vs 12 hours. To be noted: enterocloster asparagiformis, 2 µM.
Data set [9] is described as follows: The drug is tested on Providencia rettgeri strain: DSM1131 for biotransformation. The drug concentrations were measured before and after a 12-h incubation by liquid-chromatography-coupled mass spectrometry (LC–MS). The class given is ADME. Further details: dose 2 uM, timepoint 0 vs 12 hours. The following applies: 2 µM.
A short description of data set [10]: The drug is tested on Anaerotruncus colihominis strain: DSM17241 for biotransformation. The drug concentrations were measured before and after a 12-h incubation by liquid-chromatography-coupled mass spectrometry (LC–MS). The following applies: 2 µM.
For data set [11] the following is noted: bacteroides intestinalis, 12 h, 2 µM.
Description: The drug is tested on Bacteroides intestinalis strain: DSM17393 for biotransformation. The drug concentrations were measured before and after a 12-h incubation by liquid-chromatography-coupled mass spectrometry (LC–MS)
The conditions of data set [12]: bacteroides fragilis, 12 h, 2 µM.
Description: The drug is tested on Bacteroides fragilis strain: NCTC 9343 for biotransformation. The drug concentrations were measured before and after a 12-h incubation by liquid-chromatography-coupled mass spectrometry (LC–MS)
The conditions of data set [13]: bacteroides eggerthii, 12 h, 2 µM.
Description: The drug is tested on Bacteroides eggerthii strain: DSM20697 for biotransformation. The drug concentrations were measured before and after a 12-h incubation by liquid-chromatography-coupled mass spectrometry (LC–MS)
Data set [14] is described as follows: The drug is tested on Parabacteroides merdae strain: ATCC43184 for biotransformation. The drug concentrations were measured before and after a 12-h incubation by liquid-chromatography-coupled mass spectrometry (LC–MS). To be noted: 2 µM.
The conditions of data set [15]: bacteroides thetaiotaomicron, 12 h, 2 µM. This is another data set of the same source.
Description: The drug is tested on Bacteroides thetaiotaomicron strain: 3731 for biotransformation. The drug concentrations were measured before and after a 12-h incubation by liquid-chromatography-coupled mass spectrometry (LC–MS)
For data set [16] the following is noted: parabacteroides johnsonii, 12 h, 2 µM.
Description: The drug is tested on Parabacteroides johnsonii strain: DSM18315 for biotransformation. The drug concentrations were measured before and after a 12-h incubation by liquid-chromatography-coupled mass spectrometry (LC–MS)
The conditions of data set [17]: bacteroides thetaiotaomicron, 12 h, 2 µM. The source holds these as a separate data set.
Description: The drug is tested on Bacteroides thetaiotaomicron strain: 7330 for biotransformation. The drug concentrations were measured before and after a 12-h incubation by liquid-chromatography-coupled mass spectrometry (LC–MS)
The conditions of data set [18]: bacteroides fragilis, 12 h, 2 µM. This is another data set of the same source.
Description: The drug is tested on Bacteroides fragilis strain: DS-208 for biotransformation. The drug concentrations were measured before and after a 12-h incubation by liquid-chromatography-coupled mass spectrometry (LC–MS)
Data set [19] in a line: The drug is tested on Ruminococcus lactaris strain: ATCC29176 for biotransformation. The drug concentrations were measured before and after a 12-h incubation by liquid-chromatography-coupled mass spectrometry (LC–MS). To be noted: 2 µM.
Data set [20] can be described thus: The drug is tested on Collinsella intestinalis strain: DSM13280 for biotransformation. The drug concentrations were measured before and after a 12-h incubation by liquid-chromatography-coupled mass spectrometry (LC–MS). The following applies: 2 µM.

With `COC1=C(OC)C(=O)C(CCCCCCCCCCO)=C(C)C1=O` [IDEBENONE], the “Bacterial Biotransformation” value in data set [1] is listed as “Compound metabolized”; in data set [2] it was “Compound metabolized”; in [3] it was “Compound metabolized”; in [4] it was “Compound NOT metabolized”; in data set [5], “Compound NOT metabolized”; in data set [6], “Compound NOT metabolized”. Further, the “Bacterial Biotransformation” value is “Compound metabolized” in [7]; “Compound NOT metabolized” in data set [8]; “Compound NOT metabolized” in [9]; “Compound NOT metabolized” in [10]; “Compound NOT metabolized” in [11]; “Compound metabolized” in data set [12]. Also, the “Bacterial Biotransformation” value in data set [13] is reported as “Compound NOT metabolized”; in [14], “Compound NOT metabolized”; in [15], “Compound NOT metabolized”; in [16], “Compound NOT metabolized”; in data set [17], “Compound NOT metabolized”; in [18] it was “Compound metabolized”. In addition, the “Bacterial Biotransformation” value in data set [19] is given as “Compound metabolized”.

For the molecule `CCC(C)n1ncn(-c2ccc(N3CCN(c4ccc(OCC5COC(Cn6cncn6)(c6ccc(Cl)cc6Cl)O5)cc4)CC3)cc2)c1=O` (configuration not stated) [ITRACONAZOLE], the “Bacterial Biotransformation” value in data set [1], in data set [2], in [3], in data set [4], in data set [5] and in [6] was “Compound NOT metabolized” each time. Also, the “Bacterial Biotransformation” value in [7], in data set [20], in data set [8], in [9], in data set [10] and in [11] was “Compound NOT metabolized” each time. The “Bacterial Biotransformation” value in data set [12], in data set [13], in data set [14], in data set [15], in data set [16] and in data set [17] was “Compound NOT metabolized” each time. In addition, the “Bacterial Biotransformation” value in data set [18] and in [19] was “Compound NOT metabolized” in each case.

`Fc1ccc([C@@H]2CCNC[C@H]2COc2ccc3c(c2)OCO3)cc1` [PAROXETINE]: the “Bacterial Biotransformation” value was “Compound NOT metabolized” in [1]; “Compound NOT metabolized” in data set [2]; “Compound NOT metabolized” in [3]; “Compound NOT metabolized” in [4]; “Compound metabolized” in data set [5]; “Compound metabolized” in data set [6]. In addition, the “Bacterial Biotransformation” value was “Compound NOT metabolized” in data set [7]; “Compound NOT metabolized” in data set [20]; “Compound NOT metabolized” in data set [8]; “Compound NOT metabolized” in data set [9]; “Compound metabolized” in data set [10]; “Compound NOT metabolized” in [11]. For the same molecule, the “Bacterial Biotransformation” value in data set [12] is “Compound NOT metabolized”; in data set [13], “Compound NOT metabolized”; in data set [14], “Compound NOT metabolized”; in data set [15], “Compound metabolized”; in data set [16] it was “Compound metabolized”; in [17], “Compound NOT metabolized”. In addition, the “Bacterial Biotransformation” value in [18] and in data set [19] was “Compound NOT metabolized” in each case.

With `COC(=O)C1=C(C)NC(C)=C(C(=O)OC(C)C)C1c1cccc2nonc12` (configuration not stated) [ISRADIPINE], the “Bacterial Biotransformation” value in [1], in [2], in data set [3], in data set [4], in data set [5] and in [6] was “Compound NOT metabolized” throughout. The “Bacterial Biotransformation” value in data set [7], in [20], in [8], in data set [9], in data set [10] and in [11] was “Compound NOT metabolized” in each case. The “Bacterial Biotransformation” value in [12], in data set [13], in [14], in [15], in data set [16] and in data set [17] was “Compound NOT metabolized” throughout. In addition, the “Bacterial Biotransformation” value in [18] and in data set [19] was “Compound NOT metabolized” throughout.

In the case of `Cc1cc2c(cc1S(N)(=O)=O)S(=O)(=O)CCC2`, the “Bacterial Biotransformation” value in data set [1], in data set [2], in data set [3], in data set [4], in [5] and in data set [6] was “Compound NOT metabolized” throughout. The “Bacterial Biotransformation” value in [7], in data set [20], in data set [8], in [9], in data set [11] and in data set [12] was “Compound NOT metabolized” each time. Further, the “Bacterial Biotransformation” value in data set [13], in [14], in [15], in data set [16], in data set [17] and in [18] was “Compound NOT metabolized” each time. In addition, the “Bacterial Biotransformation” value in data set [19] is listed as “Compound NOT metabolized”.

In the case of `OCCN1CCN(CCCN2c3ccccc3Sc3ccc(C(F)(F)F)cc32)CC1` [FLUPHENAZINE], the “Bacterial Biotransformation” value was “Compound NOT metabolized” in data set [1]; “Compound metabolized” in data set [2]; “Compound NOT metabolized” in [3]; “Compound metabolized” in data set [4]; “Compound NOT metabolized” in data set [5]; “Compound metabolized” in data set [6]. Moreover, the “Bacterial Biotransformation” value was “Compound metabolized” in data set [7]; “Compound NOT metabolized” in data set [20]; “Compound NOT metabolized” in data set [8]; “Compound NOT metabolized” in [9]; “Compound metabolized” in data set [11]; “Compound metabolized” in data set [12]. In addition, the “Bacterial Biotransformation” value in data set [13] is “Compound NOT metabolized”; in [14], “Compound NOT metabolized”; in data set [15], “Compound metabolized”; in data set [16] it was “Compound metabolized”; in [17], “Compound metabolized”; in data set [18], “Compound metabolized”. Besides, in data set [19], the “Bacterial Biotransformation” value is “Compound NOT metabolized”.
